Measured values as given in patent US8487093B2, “β-lactamase inhibitors” (Merck Sharp & Dohme Corp., priority 2008, dated 2013).
pIC50: −log10 of the molar value. Read-outs that look alike come from different tables or passages of the source.

Tests used:
[1] = biological target: AmpC (P. aeruginosa) (Pseudomonas aeruginosa (strain ATCC 15692 / DSM 22644 / CIP 104116 / JCM 14847 / LMG 12228 / 1C / PRS 101 / PAO1), UniProt P24735); experiment: biochemical
Experimental: The Class C enzyme activities were measured in the presence of the test inhibitor in spectrophotometric assay against the commercially available substrate, nitrocefin. The enzyme AmpC (P. aeruginosa.), and the substrate, were dissolved in 100 mM KH2PO4 buffer (pH 7). The buffer also contains 0.005% BSA. The test inhibitor was dissolved in DMSO and diluted 1:20 in the assay, resulting in a final concentration range of 50 μM to 0.0002 μM. In a 96-well microplate, the test inhibitor was incubated with the beta-lactamase enzyme for 40 minutes at ambient temperature, the substrate solution was added, and the incubation continued for another 40 minutes. […] The IC50 value was determined from semi logarithmic plots of enzyme inhibition versus inhibitor concentration, with a curve generated using a 4-parameter fit.

[2] = biological target: KPC-2 (K. pneumoniae) (Klebsiella pneumoniae, UniProt Q9F663); experiment: biochemical; conditions: Table 3; read-out: K.p. KPC-2 IC50
[3] = Table 3, read-out: P.a. AmpC IC50

Chain of KPC-2 (K. pneumoniae) (Q9F663 25-293 limits assumed): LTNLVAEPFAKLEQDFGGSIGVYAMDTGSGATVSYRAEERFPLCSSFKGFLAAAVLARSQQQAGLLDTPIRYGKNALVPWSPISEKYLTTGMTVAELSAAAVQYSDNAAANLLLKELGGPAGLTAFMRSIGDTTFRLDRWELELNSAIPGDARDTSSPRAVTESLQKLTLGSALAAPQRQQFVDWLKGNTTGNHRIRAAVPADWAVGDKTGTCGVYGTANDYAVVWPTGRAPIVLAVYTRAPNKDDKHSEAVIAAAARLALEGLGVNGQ
Chain of AmpC (P. aeruginosa) (P24735 27-397): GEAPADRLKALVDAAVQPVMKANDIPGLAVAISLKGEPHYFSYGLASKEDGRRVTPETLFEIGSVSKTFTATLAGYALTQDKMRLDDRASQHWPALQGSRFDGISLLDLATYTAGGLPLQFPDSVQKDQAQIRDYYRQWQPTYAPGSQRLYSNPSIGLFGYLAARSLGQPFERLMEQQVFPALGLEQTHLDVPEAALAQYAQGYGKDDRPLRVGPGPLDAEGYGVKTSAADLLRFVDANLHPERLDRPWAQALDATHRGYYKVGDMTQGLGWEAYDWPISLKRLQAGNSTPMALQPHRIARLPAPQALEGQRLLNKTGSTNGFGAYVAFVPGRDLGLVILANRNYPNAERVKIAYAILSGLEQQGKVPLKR

## NCC1CCCCN1C(=O)[C@@H]1CC[C@@H]2CN1C(=O)N2OS(=O)(=O)O (stereo partly shown) [Example 49]
[1]; [3]
  pIC50: 5.12
[2]
  pIC50: 6.11

## NC1CCN(C(=O)[C@@H]2CC[C@@H]3CN2C(=O)N3OS(=O)(=O)O)CC1 [Example 50]
[1]; [3]
  pIC50: 6.09
[2]
  pIC50: 8.10

## O=C([C@@H]1CC[C@@H]2CN1C(=O)N2OS(=O)(=O)O)N1CCNCC1 [Example 51]
[1]; [3]
  pIC50: 5.66
[2]
  pIC50: 6.28

## O=C([C@@H]1CC[C@@H]2CN1C(=O)N2OS(=O)(=O)O)N1CC2(CCNCC2)C1 [Example 52]
[1]
  pIC50: 6.23
[2]
  pIC50: 6.00

## O=C([C@@H]1CC[C@@H]2CN1C(=O)N2OS(=O)(=O)O)N1CC2CNCC2C1 (stereo partly shown) [Example 53]
[1]
  pIC50: 6.00
[2]
  pIC50: 7.48

## N[C@@H]1CCN(C(=O)[C@@H]2CC[C@@H]3CN2C(=O)N3OS(=O)(=O)O)C1 [Example 54]
[1]; [3]
  pIC50: 6.08
[2]
  pIC50: 5.49

## N[C@H]1CCN(C(=O)[C@@H]2CC[C@@H]3CN2C(=O)N3OS(=O)(=O)O)C1 [Example 55]
[1]; [3]
  pIC50: 5.85
[2]
  pIC50: 5.82

## CN(C)C1CCN(C(=O)[C@@H]2CC[C@@H]3CN2C(=O)N3OS(=O)(=O)O)C1 (stereo partly shown) [Example 56]
[1]; [3]
  pIC50: 6.57
[2]
  pIC50: 5.80

## NCc1ccc(NC(=O)[C@@H]2CC[C@@H]3CN2C(=O)N3OS(=O)(=O)O)cc1 [Example 57]
[1]; [3]
  pIC50: 7.70
[2]
  pIC50: 7.14

## NCc1cccc(NC(=O)[C@@H]2CC[C@@H]3CN2C(=O)N3OS(=O)(=O)O)c1 [Example 58]
[1]
  pIC50: 7.47
[2]
  pIC50: 6.98

## NCc1ccccc1NC(=O)[C@@H]1CC[C@@H]2CN1C(=O)N2OS(=O)(=O)O [Example 59]
[1]
  pIC50: 6.53
[2]
  pIC50: 6.96

## CNCc1ccc(NC(=O)[C@@H]2CC[C@@H]3CN2C(=O)N3OS(=O)(=O)O)cc1 [Example 60]
[1]; [3]
  pIC50: 7.74
[2]
  pIC50: 7.25

## CNCc1cccc(NC(=O)[C@@H]2CC[C@@H]3CN2C(=O)N3OS(=O)(=O)O)c1 [Example 61]
[1]
  pIC50: 7.66
[2]
  pIC50: 7.11

## CN(C)Cc1ccc(NC(=O)[C@@H]2CC[C@@H]3CN2C(=O)N3OS(=O)(=O)O)cc1 [Example 62]
[1]; [3]
  pIC50: 7.74
[2]
  pIC50: 7.27

## O=C(Nc1ccc(CN2CCCC2)cc1)[C@@H]1CC[C@@H]2CN1C(=O)N2OS(=O)(=O)O [Example 63]
[1]; [3]
  pIC50: 7.66
[2]
  pIC50: 7.07

## O=C(Nc1ccc2c(c1)CNC2)[C@@H]1CC[C@@H]2CN1C(=O)N2OS(=O)(=O)O [Example 65]
[1]; [3]
  pIC50: 7.80
[2]
  pIC50: 7.22

## O=C(Nc1ccc2c(c1)CCN2)[C@@H]1CC[C@@H]2CN1C(=O)N2OS(=O)(=O)O [Example 66]
[1]; [3]
  pIC50: 7.25
[2]
  pIC50: 7.39

## O=C(O)c1ccc(NC(=O)[C@@H]2CC[C@@H]3CN2C(=O)N3OS(=O)(=O)O)cc1 [Example 67]
[1]; [3]
  pIC50: 7.96
[2]
  pIC50: 8.00

## NC(=O)c1ccc(NC(=O)[C@@H]2CC[C@@H]3CN2C(=O)N3OS(=O)(=O)O)cc1 [Example 68]
[1]; [3]
  pIC50: 8.15
[2]
  pIC50: 7.52

## NS(=O)(=O)c1ccc(NC(=O)[C@@H]2CC[C@@H]3CN2C(=O)N3OS(=O)(=O)O)cc1 [Example 69]
[1]; [3]
  pIC50: 8.15
[2]
  pIC50: 7.66

## NC(=O)c1cccc(NC(=O)[C@@H]2CC[C@@H]3CN2C(=O)N3OS(=O)(=O)O)c1 [Example 70]
[1]
  pIC50: 8.52
[2]
  pIC50: 7.59

## O=C(Nc1cccnc1)[C@@H]1CC[C@@H]2CN1C(=O)N2OS(=O)(=O)O [Example 71]
[1]
  pIC50: 7.43
[2]
  pIC50: 7.38

## O=C(Nc1ccccn1)[C@@H]1CC[C@@H]2CN1C(=O)N2OS(=O)(=O)O [Example 72]
[1]; [3]
  pIC50: 8.92
[2]
  pIC50: 7.44

## O=C(Nc1cc(N2CCCC2)nc(N2CCCC2)c1)[C@@H]1CC[C@@H]2CN1C(=O)N2OS(=O)(=O)O [Example 73]
[1]; [3]
  pIC50: 6.29
[2]
  pIC50: 6.89

## Nc1cccc(NC(=O)[C@@H]2CC[C@@H]3CN2C(=O)N3OS(=O)(=O)O)n1 [Example 74]
[1]; [3]
  pIC50: 8.10
[2]
  pIC50: 7.96

## CN(C)c1ccnc(NC(=O)[C@@H]2CC[C@@H]3CN2C(=O)N3OS(=O)(=O)O)c1 [Example 75]
[1]; [3]
  pIC50: 8.52
[2]
  pIC50: 6.39

## NCc1ccnc(NC(=O)[C@@H]2CC[C@@H]3CN2C(=O)N3OS(=O)(=O)O)c1 [Example 76]
[1]; [3]
  pIC50: 8.70
[2]
  pIC50: 5.89

## NCc1ccc(NC(=O)[C@@H]2CC[C@@H]3CN2C(=O)N3OS(=O)(=O)O)nc1 [Example 77]
[1]; [3]
  pIC50: 8.52
[2]
  pIC50: 7.38

## O=C(Nc1cc(C2CCNCC2)ccn1)[C@@H]1CC[C@@H]2CN1C(=O)N2OS(=O)(=O)O [Example 78]
[1]; [3]
  pIC50: 9.10
[2]
  pIC50: 6.33

## O=C(Nc1cccc(C2CCNCC2)n1)[C@@H]1CC[C@@H]2CN1C(=O)N2OS(=O)(=O)O [Example 79]
[1]; [3]
  pIC50: 6.57
[2]
  pIC50: 7.62

## O=C(Nc1ccc(N2CCNCC2)cn1)[C@@H]1CC[C@@H]2CN1C(=O)N2OS(=O)(=O)O [Example 80]
[1]; [3]
  pIC50: 8.70
[2]
  pIC50: 7.82

## O=C(Nc1ccc(N2CCOCC2)cn1)[C@@H]1CC[C@@H]2CN1C(=O)N2OS(=O)(=O)O [Example 81]
[1]; [3]
  pIC50: 8.30
[2]
  pIC50: 7.77

## O=C(Nc1ccc(N2CCCC2)cn1)[C@@H]1CC[C@@H]2CN1C(=O)N2OS(=O)(=O)O [Example 82]
[1]; [3]
  pIC50: 8.40
[2]
  pIC50: 8.00

## O=C(Nc1cnccn1)[C@@H]1CC[C@@H]2CN1C(=O)N2OS(=O)(=O)O [Example 83]
[1]; [3]
  pIC50: 8.22
[2]
  pIC50: 7.24

## O=C(Nc1ccncn1)[C@@H]1CC[C@@H]2CN1C(=O)N2OS(=O)(=O)O [Example 84]
[1]; [3]
  pIC50: 9.10
[2]
  pIC50: 7.26

## O=C(Nc1ccnc(N2CCNCC2)n1)[C@@H]1CC[C@@H]2CN1C(=O)N2OS(=O)(=O)O [Example 85]
[1]; [3]
  pIC50: 6.59
[2]
  pIC50: 7.70

## Cn1ccnc1NC(=O)[C@@H]1CC[C@@H]2CN1C(=O)N2OS(=O)(=O)O [Example 86]
[1]; [3]
  pIC50: 6.62
[2]
  pIC50: 6.87

## CN1CCN=C1NC(=O)[C@@H]1CC[C@@H]2CN1C(=O)N2OS(=O)(=O)O [Example 87]
[1]; [3]
  pIC50: 6.70
[2]
  pIC50: 6.08

## O=C(Nc1nccs1)[C@@H]1CC[C@@H]2CN1C(=O)N2OS(=O)(=O)O [Example 88]
[1]; [3]
  pIC50: 8.74
[2]
  pIC50: 7.44

## O=C(Nc1nc2c(s1)CNCC2)[C@@H]1CC[C@@H]2CN1C(=O)N2OS(=O)(=O)O [Example 89]
[1]; [3]
  pIC50: 8.00
[2]
  pIC50: 7.41

## O=C(O[C@H]1CCCNCC1)[C@@H]1CC[C@@H]2CN1C(=O)N2OS(=O)(=O)O [Example 91]
[1]; [3]
  pIC50: 7.08
[2]
  pIC50: 8.22

## O=C(O[C@@H]1CCCNCC1)[C@@H]1CC[C@@H]2CN1C(=O)N2OS(=O)(=O)O [Example 92]
[1]; [3]
  pIC50: 4.48
[2]
  pIC50: 5.19

## O=C(OC1CCNCC1)[C@@H]1CC[C@@H]2CN1C(=O)N2OS(=O)(=O)O [Example 93]
[1]
  pIC50: 6.77
[2]
  pIC50: 8.05

## O=C(O[C@@H]1CCNC1)[C@@H]1CC[C@@H]2CN1C(=O)N2OS(=O)(=O)O [Example 94]
[1]
  pIC50: 5.52
[2]
  pIC50: 7.40

## O=C(O[C@H]1CCNC1)[C@@H]1CC[C@@H]2CN1C(=O)N2OS(=O)(=O)O [Example 95]
[1]
  pIC50: 6.68
[2]
  pIC50: 7.68

## O=C(OC1CNC1)[C@@H]1CC[C@@H]2CN1C(=O)N2OS(=O)(=O)O [Example 96]
[1]; [3]
  pIC50: 6.22
[2]
  pIC50: 7.74

## O=C(O[C@@H]1CCNC[C@@H]1F)[C@@H]1CC[C@@H]2CN1C(=O)N2OS(=O)(=O)O [Example 97]
[1]; [3]
  pIC50: 7.31
[2]
  pIC50: 7.59

## O=C(O[C@H]1CCNC[C@H]1F)[C@@H]1CC[C@@H]2CN1C(=O)N2OS(=O)(=O)O [Example 98]
[1]; [3]
  pIC50: 7.34
[2]
  pIC50: 8.05

## O=C(O[C@@H]1CCNC[C@H]1F)[C@@H]1CC[C@@H]2CN1C(=O)N2OS(=O)(=O)O [Example 99]
[1]; [3]
  pIC50: 7.40
[2]
  pIC50: 8.10

## O=C(O[C@H]1CCNC[C@@H]1F)[C@@H]1CC[C@@H]2CN1C(=O)N2OS(=O)(=O)O [Example 100]
[1]; [3]
  pIC50: 7.48
[2]
  pIC50: 8.40
